Experimental findings from patent US7326700B2, “Cyclohexenyl phenyl carboxamides tocolytic oxytocin receptor antagonists” (Wyeth, priority 2001, dated 2008) are described below.

The term inhibition denotes the percentage by which the read-out fell short of the control. A lower inhibition goes with a weak effect. What is called IC50 is the concentration at which inhibition is half-maximal.

Counter-ions that a name gives are not always drawn.

T1 sequence (P37288 whole entry): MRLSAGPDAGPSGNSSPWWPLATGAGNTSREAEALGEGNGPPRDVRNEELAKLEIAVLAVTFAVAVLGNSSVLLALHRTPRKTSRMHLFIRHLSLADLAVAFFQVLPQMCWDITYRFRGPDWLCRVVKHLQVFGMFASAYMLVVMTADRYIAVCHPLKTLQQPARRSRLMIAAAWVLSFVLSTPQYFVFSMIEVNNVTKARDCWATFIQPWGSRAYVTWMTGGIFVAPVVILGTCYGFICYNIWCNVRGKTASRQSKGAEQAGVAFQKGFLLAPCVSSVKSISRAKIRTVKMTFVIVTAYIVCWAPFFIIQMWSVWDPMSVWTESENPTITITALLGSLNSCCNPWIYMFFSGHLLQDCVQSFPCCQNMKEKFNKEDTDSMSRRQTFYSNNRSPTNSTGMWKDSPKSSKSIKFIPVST

One experiment addresses T1, human vasopressin V1a receptor subtype (Homo sapiens, UniProt P37288).
T1 construct: host or cells: CHO cells, stably transfected (pZeoSV vector for the Thibonnier line)
Put plainly: Vasopressin binding in CHO cell membranes expressing human vasopressin V1a subtype receptors ([3H]Manning ligand radioligand binding). The note with it: 100 nM. The source says:
Chinese hamster ovary cells (CHO cells) stably transfected with the human vasopressin V1a subtype receptors were either obtained from Biosignal Inc., 1744 rue Williams, Montreal, Quebec, Canada or obtained from M. Thibonnier, Case Western Reserve University School of Medicine, Cleveland, Ohio.
CHO cells transfected with the human vasopressin V1a subtype receptors obtained from M. Thibonnier (pZeoSV vector) are allowed to grow to confluency (approx. >90%) in T-150 flasks under sterile conditions, in a cell culture medium consisting of F-12 Nutrient Mixture (HAM) with L-glutamine (Gibco Cat. #11765-054) containing 15 mM HEPES (Gibco Cat. #15630-080), 1% antibiotic/antimycotic (add 5 mL 100×, Gibco Cat. #15240-062 per 500 mL F-12), 250 μg/mL Zeocin (add 1.25 mL of 100 mg/mL Invitrogen R-250-01 per 500 mL F-12) and 10% Fetal Bovine Serum (Qualified, heat inactivated, Gibco Cat. #16140-063). The medium is removed by aspiration and the cells are washed with 10 mL of Hank's Balanced Salt solution (Gibco Cat. #14175-095). The salt solution is removed by aspiration and the cells are trypsinized with 5 mL of trypsin-EDTA (0.05% trypsin, 0.53 mM EDTA-4Na, Gibco Cat. #25300-070) for 1 min. The trypsin is removed by aspiration and the cells dislodged by tapping. Cell Culture medium (eg, 30 mL for 1:30 split) is immediately added and mixed well to inactivate trypsin. 1 mL of detached cells is added to new culture flasks containing fresh cell culture medium (eg, into 25 mL per T-150 flask), and mixed gently. The cells are incubated at 37° C. in 5% CO2. The medium is changed at 3 to 4 days interval (or as appropriate). The cells grow to confluency (approx. >75%-95%) within 7-8 days. All steps are done under sterile conditions.
The cells are washed twice gently with Hank's Balanced Salt solution (e.g,. use 10 mL per T-150 flask). The excess is removed and the cells are bathed for 15-30 min. in an enzyme-free Cell Dissociation Buffer (e.g. use 8 mL Hank's Based, Gibco Cat. #13150-016 per T-150 flask) until the cells are loosened. The contents are transferred to centrifuge tubes (50 mL) kept in an ice bath. All subsequent steps are done at 4° C. The tubes are centrifuged at 300×g for 15 min (1380 rpm on SORVAL, Model RT6000D, using the rotor for 50 mL tubes). The supernatant is discarded and the cells suspended in homogeneizing buffer (10 mM Tris-HCl containing 0.25 M sucrose and 1 mM EDTA, pH 7.4) ensuring that the volume of the buffer is about ten times the volume of the cell pellet. The cells are pooled into a centrifuge tube (50 mL) and homogenized with Polytron at setting 6 for 10 sec. The homogenate is transferred into a Potter-Elvjehm homogenizer and homogenized with 3 strokes. The homogenate is centrifuged at 1500×g for 10 min at 4° C. (3100 rpm using SORVAL, model RT6000D, using the rotor for 50 mL tubes). The pellet is discarded. The supernatant is centrifuged at 100,000×g for 60 min. at 4° C. (Beckman L8-80M ultracentrifuge; spin at 37,500 rpm with rotor type 70 Ti for 50 mL tubes; 38,000 rpm with type 80Ti for 15 mL tubes; or 35,800 rpm with rotor type 45Ti). The supernantant is discarded and the pellet suspended in 3 to 4 mL of Tris buffer (50 mM TRIS-HCl, pH 7.4). The protein content is estimated by the Bradford or Lowry method. The volume of the membrane suspension is adjusted with the membrane buffer (50 mM Tris-HCl containing 0.1% BSA and 0.1 mM PMSF) to give 3.0 mg/mL (or as appropriate) of protein. The membranes are aliquoted and stored at −70° C.
In wells of a 96-well format microtiter plate, is added 90, 110 or 130 μL (to make up a final volume of 200 μL) of assay buffer containing 50 mM of Tris-HCl (pH 7.4), BSA (heat inactivated, protease-free), […], 1 mg % aprotinin, 1 mg % leupeptin, 2 mg % 1,10-phenanthroline, 10 mg % trypsin inhibitor, and 0.1 mM PMSF. The inhibitors are added on the day of the experiment. […]
For `COc1cc(C2=CCCCC2)c(Cl)cc1C(=O)N1Cc2ccc(C(=O)N(C)CCCN(C)C)n2Cc2ccccc21` [Example 2, 10-(5-Chloro-4-cyclohex-1-en-1-yl-2-methoxybenzoyl)-N-[3-(dimethylamino)propyl]-N-methyl-10,11-dihydro-5H-pyrrolo[2,1-c][1,4]benzodiazepine-3-carboxamide], the inhibition at 0.1 µM is 19%.
Still for that read-out and setting: with `Cc1cc(C(=O)N2Cc3ccc(C(=O)N4CCN(C)CC4)n3Cc3ccccc32)ccc1C1=CCCCC1` [Example 4, [10-(4-Cyclohex-1-en-1-yl-3-methyl-benzoyl)-10,11-dihydro-5H-pyrrolo[2,1-c][1,4]benzodiazepin-3-yl]-(4-methyl-piperazin-1-yl)-methanone] the figure was 26%; with `Cc1cc(C(=O)N2Cc3ccc(C(=O)N4CCN(CCCN(C)C)CC4)n3Cc3ccccc32)ccc1C1=CCCCC1` [Example 5, [10-(4-Cyclohex-1-en-1-yl-3-methyl-benzoyl)-10,11-dihydro-5H-pyrrolo[2,1-c][1,4]benzodiazepin-3-yl]-[4-(3-dimethylamino-propyl)-piperazin-1-yl]-methanone], 56%; with `Cc1cc(C(=O)N2Cc3ccc(C(=O)N4CCN(C)CC4)n3Cc3ccccc32)ccc1C1=CCCc2ccccc21` [Example 6, {10-[4-(3,4-Dihydro-naphthalen-1-yl)-3-methyl-benzoyl]-10,11-dihydro-5H-benzo[e]pyrrolo[1,2-a][1,4]diazepin-3-yl}-(4-methyl-piperazin-1-yl)-methanone], 4%.
For the molecule `Cc1cc(C(=O)N2Cc3ccc(C(=O)N4CCN(CCCN(C)C)CC4)n3Cc3ccccc32)ccc1C1=CCCc2ccccc21` [Example 7, {10-[4-(3,4-Dihydro-naphthalen-1-yl)-3-methyl-benzoyl]-10,11-dihydro-5H-pyrrolo[2,1-c][1,4]benzodiazepin-3-yl}-[4-(3-dimethylamino-propyl)-piperazin-1-yl]-methanone], the inhibition at 0.1 µM is 7%.
`CC1=C(c2ccc(C(=O)N3Cc4ccc(C(=O)N5CCN(C)CC5)n4Cc4ccccc43)cc2C)CCCC1O` (stereo not drawn) [Example 10, [4-(3-Hydroxy-2-methyl-cyclohex-1-en-1-yl)-3-methyl-phenyl]-[3-(4-methyl-piperazine-1carbonyl)-10,11-dihydro-5H-pyrrolo[2,1-c][1,4]benzodiazepin-10-yl]-methanone] came in with an inhibition at 0.1 µM of 52%.
Turning to `CC1=C(c2ccc(C(=O)N3Cc4ccc(C(=O)N5CCN(C)CC5)n4Cc4ccccc43)cc2C)CCC[C@H]1O` [Example 11, [4-((3R)-3-Hydroxy-2-methyl-cyclohex-1-en-1-yl)-3-methyl-phenyl]-[3-(4-methyl-piperazine-1-carbonyl)-10,11-dihydro-5H-pyrrolo [2,1-c][1,4]benzodiazepin-10-yl]-methanone], the inhibition at 0.1 µM turned out to be 26%.
With `Cc1cc(C(=O)N2Cc3ccc(C(=O)N4CCCN(C)CC4)n3Cc3ccccc32)ccc1C1=CCCCC1` [Example 13, {10-[4-(1-Cyclohex-1-en-1-yl)-3-methylbenzoyl]-10,11-dihydro-5H-pyrrolo[2,1-c][1,4]benzodiazepin-3-yl}(4-methyl-1,4-diazepan-1-yl)methanone], the “V1a % inhibition @ 100 nM” value is given as 34%.
Still for that read-out and setting: as for `Cc1cc(C(=O)N2Cc3ccc(C(=O)NCCCN(C)C)n3Cc3ccccc32)ccc1C1=CCCCC1` [Example 14, 10-[4-(1-Cyclohex-1-en-1-yl)-3-methylbenzoyl]-N-[3-(dimethylamino)propyl]-10,11-dihydro-5H-pyrrolo[2,1-c][1,4]benzodiazepine-3-carboxamide], the figure is 24%; as for `Cc1cc(C(=O)N2Cc3ccc(C(=O)N(C)CCN(C)C)n3Cc3ccccc32)ccc1C1=CCCCC1` [Example 15, 10-[4-(1-Cyclohex-1-en-1-yl)-3-methylbenzoyl]-N-[2-(dimethylamino)ethyl]-N-methyl-10,11-dihydro-5H-pyrrolo[2,1-c][1,4]benzodiazepine-3-carboxamide], 71%; as for `Cc1cc(C(=O)N2Cc3ccc(C(=O)N(C)CCCN(C)C)n3Cc3ccccc32)ccc1C1=CCCCC1` [Example 16, 10-[4-(1-Cyclohex-1-en-1-yl)-3-methylbenzoyl]-N-[3-(dimethylamino)propyl]-N-methyl-10,11-dihydro-5H-pyrrolo[2,1-c][1 ,4]benzodiazepine-3-carboxamide], 55%.
On the same count and under the same terms, as for `Cc1cc(C(=O)N2Cc3ccc(C(=O)N4CCC(N5CCCCC5)CC4)n3Cc3ccccc32)ccc1C1=CCCCC1` [Example 17, {10-[4-(1-Cyclohex-1-en-1-yl)-3-methylbenzoyl]-10,11-dihydro-5H-pyrrolo[2,1-c][1,4]benzodiazepin-3-yl}[4-(1-piperidinyl)-1-piperidinyl]methanone], the figure is 30%; as for `Cc1cc(C(=O)N2Cc3ccc(C(=O)NCCCn4ccnc4)n3Cc3ccccc32)ccc1C1=CCCCC1` [Example 18, 10-[4-(1-Cyclohex-1-en-1-yl)-3-methylbenzoyl]-N-[3-(1H-imidazol-1-yl)propyl]10,11-dihydro-5H-pyrrolo[2,1-c][1,4]benzodiazepine-3-carboxamide], 7%.
For `Cc1cc(C(=O)N2Cc3ccc(C(=O)N4CCC(N5CCCC5)CC4)n3Cc3ccccc32)ccc1C1=CCCCC1` [Example 19, {10-[4-(1-Cyclohex-1-en-1-yl)-3-methylbenzoyl]-10,11-dihydro-5H-pyrrolo[2,1c][1,4]benzodiazepin-3-yl}[4-(1-pyrrolidinyl)-1-piperidinyl]methanone], the “V1a % inhibition @ 100 nM” value was found to be 33%.
On the same count and under the same terms, with `Cc1cc(C(=O)N2Cc3ccc(C(=O)NCCN4CCCCC4)n3Cc3ccccc32)ccc1C1=CCCCC1` [Example 20, 10-[4-(1-Cyclohex-1-en-1-yl)-3-methylbenzoyl]-N-[2-(1-piperidinyl)ethyl]-10,11-dihydro-5H-pyrrolo[2,1-c][1,4]benzodiazepine-3-carboxamide] the figure was 23%; with `Cc1cc(C(=O)N2Cc3ccc(C(=O)NCCC4CCCN4C)n3Cc3ccccc32)ccc1C1=CCCCC1` (stereo not drawn) [Example 21, 10-[4-(1-Cyclohex-1-en-1-yl)-3-methylbenzoyl]-N-[2-(1-methyl-2-pyrrolidinyl)ethyl]-10,11-dihydro-5H-pyrrolo[2,1-c][1,4]benzodiazepine-3-carboxamide], 28%.

Staying with this experiment, now noted: value in parentheses.
For `COc1cc(C2=CCCCC2)c(Cl)cc1C(=O)N1Cc2ccc(C(=O)N3CCC[C@H]3CN3CCCC3)n2Cc2ccccc21` [Example 1, 4-Chloro-5-cyclohex-1-en-1-yl-2-[(3-{[(2S)-2-(pyrrolidin-1-ylmethyl)pyrrolidin-1-yl]carbonyl}-5H-pyrrolo [2,1-c][1,4]benzodiazepin-10(11H)-yl)carbonyl]phenyl methyl ether], the 50% inhibitory concentration (IC50) was found to be 1.28 µM.
As for `COc1cc(C2=CCCCC2)c(Cl)cc1C(=O)N1Cc2ccc(C(=O)N(C)CCCN(C)C)n2Cc2ccccc21` [Example 3, 10-(5-Chloro-4-cyclohex-1-en-1-yl-2-methoxybenzoyl)-N-[3-(dimethylamino)propyl]-N-methyl-10,11-dihydro-5H-pyrrolo[2,1-c][1,4]benzodiazepine-3-carboxamide citric acid salt], the 50% inhibitory concentration (IC50) came to 0.977 µM.
